# Measured values from paper PMC4335020, “Single Oral Dose Pharmacokinetics of Decursin and Decursinol Angelate in Healthy Adult Men and Women” (PLoS ONE, 2015).
# Read-outs that look alike come from different tables or passages of the source.
# Test: Single oral dose human plasma pharmacokinetics of D, DA and DOH after Cogni.Q
# Type: in vivo
# Description: Ten healthy male and 10 female subjects were recruited by public announcement in Amarillo, TX, from January 2013 to April 2013 (see Fig. 1 CONSORT diagram). The sample size for each gender was chosen without power calculation due to the lack of prior knowledge of PK parameter variance in humans. After receiving informed consent verbally and in writing, the health status of each candidate was confirmed by health questionnaire, plasma biochemistry (hepatic and renal functions), complete blood cell count (CBC), and a physical examination by a participating academic physician. Subjects with diabetes, or pregnant, perinatal and breastfeeding women were excluded. For the 48 hours preceding study visit until the final blood draw, all subjects were instructed to avoid taking any prescription or nonprescription drugs, vitamins, and herbal/dietary supplements. Each subject was compensated for participating in the study per TTUHSC IRB approved rate.
# Eligible subjects arrived at our clinical facility at 0700 (7:00 am) on the test day after a fast beginning at 2200 (10:00 pm) the previous night. After a brief review of vital signs, the nurse placed an intravenous (IV) line with saline drip in one arm of each subject. A baseline pre-dose (hour 0) blood sample was drawn through the IV line; after that subjects swallowed four Cogni.Q vegicaps with 240 mL of water at hour 0 under direct supervision. Subjects stayed at the clinical facility in their room for the next 12 hours, returning at 24 and 48 hours. Blood was drawn at baseline (hour 0) and at 0.5, 1, 2, 3, 4, 6, 8, 12, 24 and 48 hours after dosing into Vacutainer Blood Collection Tube (Becton-Dickinson, Franklin Lakes, NJ. Product Number: 367874, Sodium heparin was used as anti-coagulant). Water was allowed as desired except for within the first hour after Cogni.Q consumption. All subjects received standardized meals at post-dose hours 4.5 and 9.5 but no food was allowed for at least the first 4 hours post-dose.
# Plasma was prepared by centrifuging the heparinized blood at 1000 g for 15 minutes at room temperature. Urine samples (40mL) were collected within time spans of 0–4, 4–8, 8–12 and 12–24 hours (total volume of urine was recorded). All plasma and urine samples were put on dry ice immediately and then stored at -80°C freezer until analysis.
# Plasma samples were extracted with a validated solid supported liquid extraction (SLE) method facilitated with a positive pressure manifold (Biotage, Charlotte, NC). Briefly, 100 μL of plasma sample was spiked with 5 μL of 10 ng/μL prednisolone (IS), diluted with 200 μL of LC-MS grade water, mixed and loaded onto ISOLUTE SLE+ 400 μL Array Well cartridges (Biotage, Charlotte, NC). A pulse of minimum positive pressure was applied to facilitate the samples absorption into the cartridges. After the samples were allowed to absorb for 5 min, the compounds were eluted with 2×500 μL tert-butyl methyl ether. The eluent was dried in a Speedvac and the resulting residue was reconstituted in 50 μL of methanol for UHPLC-MS/MS analysis.
# Eight-point calibration curves were constructed for D, DA and DOH, at concentrations of 0.1, 0.5, 1, 5, 10, 20, 50 and 100 μg/L for D and DA, and at concentrations of 1, 5, 10, 50, 100, 200, 500 and 1000 μg/L for DOH, respectively. The linear range was 0.1–100 μg/L (0.3–300 nmol/L), 0.1–100 μg/L (0.3–300 nmol/L) and 1–1000 μg/L (4–4000 nmol/L) for D, DA and DOH, respectively. The inter- and intra-assay CV were lower than 6.5% and the accuracy was between 90–105%. Calibration curve was run for each batch of samples analyzed. The mean calibration curve correlation coefficient (r) for D, DA and DOH was 0.999, 0.999 and 0.998, respectively (data from 7–10 calibration curves). In addition, 70% of the plasma samples were extracted and analyzed twice, the data from two replicate analyses were nearly identical and combined for final data analyses and presentation. […]
smiles,measurement,setting,value
"CC1(C)Oc2cc3oc(=O)ccc3cc2C[C@@H]1O [DOH, decursinol]",Cmax,"both sexes, human, plasma, oral, 4 Cogni.Q vegicaps, n=20 (S1 Table), read-out: Cmax, nM, Grand Mean",2480 nM
same,Tmax,"both sexes, human, plasma, oral, 4 Cogni.Q vegicaps, n=20 (S1 Table), read-out: Tmax, h, Grand Mean",3.3 h
same,half-life,"both sexes, human, plasma, oral, all subjects, outliers excluded (S1 Table), read-out: Terminal t1/2, h, Grand Mean (converted)",7.4 h
same,Cmax,"both sexes, human, plasma, oral, human subjects, read-out: plasma C max, average value",2500 nM
same,AUC(0-t),"both sexes, human, plasma, oral, n=20 (S1 Table), read-out: AUC0-48h, Grand Mean",27600 nmol·h/L
same,Cmax,"both sexes, human, plasma, oral, range over human subjects, read-out: plasma C max, range in human subjects",1300 to 4000 nM
same,Cmax,"both sexes, human, plasma, po, all human subjects n = 20, single oral dose 4 Cogni.Q vegicaps (119 mg D, 77 mg DA), plasma, read-out: Cmax, nmol/L Mean (SD)",2480 nM
same,AUC(0-t),"both sexes, human, plasma, po, all human subjects n = 20, single oral dose Cogni.Q, plasma (Table 2), read-out: AUC0–48h, nmol/L, Mean (SD)",27600 nmol·h/L
same,AUC(0-t),"both sexes, human, twenty healthy subjects, single oral dose Cogni.Q, plasma (abstract), read-out: mean area under the curve (AUC0-48h)",27600 nmol·h/L
same,Tmax,"both sexes, all human subjects n = 20, single oral dose 4 Cogni.Q vegicaps (119 mg D, 77 mg DA), plasma, read-out: Tmax, h, Mean (SD)",3.3 h
same,half-life,"both sexes, all human subjects, four outlier subjects excluded, single oral dose Cogni.Q, plasma, read-out: Terminal t1/2, h, Mean (SD) (converted)",7.4 h
same,AUC(0-t),"female, human, plasma, oral, 4 Cogni.Q vegicaps, Women n=10 (S1 Table), read-out: AUC0-48h, Mean, F",32700 nmol·h/L
same,Cmax,"female, human, plasma, oral, 4 Cogni.Q vegicaps, Women n=10 (S1 Table), read-out: Cmax, nM, Mean, F",2610 nM
same,Tmax,"female, human, plasma, oral, Women n=10 (S1 Table), read-out: Tmax, h, Mean, F",4.1 h
same,half-life,"female, human, plasma, oral, Women, outliers excluded (S1 Table), read-out: Terminal t1/2, h, Mean, F (converted)",8.3 h
same,AUC(0-t),"female, human, plasma, po, Women N = 10, single oral dose Cogni.Q, plasma, read-out: AUC0–48h, h.nmol/L Mean (SD)",32700 nmol·h/L
same,Cmax,"female, human, plasma, po, Women N = 10, single oral dose Cogni.Q, plasma, read-out: Cmax, nmol/L, Mean (SD)",2610 nM
same,Tmax,"female, human, plasma, po, Women N = 10, single oral dose Cogni.Q, plasma, read-out: Tmax, h, Mean (SD)",4.1 h
same,half-life,"female, human, plasma, po, Women, outlier subjects excluded, single oral dose Cogni.Q, plasma, read-out: T1/2, h, terminal Mean (SD) (converted)",8.3 h
same,half-life,"human, plasma, oral, 4 Cogni.Q vegicaps, subject S1 (115 lb), outlier, excluded from means, read-out: Terminal t1/2, h (converted)",9.9 h
same,AUC(0-t),"human, plasma, oral, 4 Cogni.Q vegicaps, subject S1 (115 lb), read-out: AUC0-48h",17600 nmol·h/L
same,Cmax,"human, plasma, oral, 4 Cogni.Q vegicaps, subject S1 (115 lb), read-out: Cmax",2380 nM
same,Tmax,"human, plasma, oral, 4 Cogni.Q vegicaps, subject S1 (115 lb), read-out: Tmax",3 h
same,AUC(0-t),"human, plasma, oral, 4 Cogni.Q vegicaps, subject S2 (194 lb), read-out: AUC0-48h",25000 nmol·h/L
same,Cmax,"human, plasma, oral, 4 Cogni.Q vegicaps, subject S2 (194 lb), read-out: Cmax",2390 nM
same,half-life,"human, plasma, oral, 4 Cogni.Q vegicaps, subject S2 (194 lb), read-out: Terminal t1/2, h (converted)",9.2 h
same,Tmax,"human, plasma, oral, 4 Cogni.Q vegicaps, subject S2 (194 lb), read-out: Tmax",4 h
same,half-life,"human, plasma, oral, 4 Cogni.Q vegicaps, subject S3 (170 lb), outlier, excluded from means, read-out: Terminal t1/2, h (converted)",5.2 h
same,AUC(0-t),"human, plasma, oral, 4 Cogni.Q vegicaps, subject S3 (170 lb), read-out: AUC0-48h",8310 nmol·h/L
same,Cmax,"human, plasma, oral, 4 Cogni.Q vegicaps, subject S3 (170 lb), read-out: Cmax",1560 nM
same,Tmax,"human, plasma, oral, 4 Cogni.Q vegicaps, subject S3 (170 lb), read-out: Tmax",6 h
same,AUC(0-t),"human, plasma, oral, 4 Cogni.Q vegicaps, subject S4 (170 lb), read-out: AUC0-48h",63700 nmol·h/L
same,Cmax,"human, plasma, oral, 4 Cogni.Q vegicaps, subject S4 (170 lb), read-out: Cmax",2680 nM
same,half-life,"human, plasma, oral, 4 Cogni.Q vegicaps, subject S4 (170 lb), read-out: Terminal t1/2, h (converted)",11.1 h
same,Tmax,"human, plasma, oral, 4 Cogni.Q vegicaps, subject S4 (170 lb), read-out: Tmax",6 h
same,AUC(0-t),"human, plasma, oral, 4 Cogni.Q vegicaps, subject S5 (161 lb), read-out: AUC0-48h",19200 nmol·h/L
same,Cmax,"human, plasma, oral, 4 Cogni.Q vegicaps, subject S5 (161 lb), read-out: Cmax",1530 nM
same,half-life,"human, plasma, oral, 4 Cogni.Q vegicaps, subject S5 (161 lb), read-out: Terminal t1/2, h (converted)",7.7 h
same,Tmax,"human, plasma, oral, 4 Cogni.Q vegicaps, subject S5 (161 lb), read-out: Tmax",2 h
same,AUC(0-t),"human, plasma, oral, 4 Cogni.Q vegicaps, subject S6 (120 lb), read-out: AUC0-48h",37500 nmol·h/L
same,Cmax,"human, plasma, oral, 4 Cogni.Q vegicaps, subject S6 (120 lb), read-out: Cmax",2770 nM
same,half-life,"human, plasma, oral, 4 Cogni.Q vegicaps, subject S6 (120 lb), read-out: Terminal t1/2, h (converted)",7.2 h
same,Tmax,"human, plasma, oral, 4 Cogni.Q vegicaps, subject S6 (120 lb), read-out: Tmax",4 h
same,AUC(0-t),"human, plasma, oral, 4 Cogni.Q vegicaps, subject S7 (180 lb), read-out: AUC0-48h",51800 nmol·h/L
same,Cmax,"human, plasma, oral, 4 Cogni.Q vegicaps, subject S7 (180 lb), read-out: Cmax",3970 nM
same,half-life,"human, plasma, oral, 4 Cogni.Q vegicaps, subject S7 (180 lb), read-out: Terminal t1/2, h (converted)",6.5 h
same,Tmax,"human, plasma, oral, 4 Cogni.Q vegicaps, subject S7 (180 lb), read-out: Tmax",6 h
same,AUC(0-t),"human, plasma, oral, 4 Cogni.Q vegicaps, subject S8 (160 lb), read-out: AUC0-48h",30400 nmol·h/L
same,Cmax,"human, plasma, oral, 4 Cogni.Q vegicaps, subject S8 (160 lb), read-out: Cmax",2530 nM
same,half-life,"human, plasma, oral, 4 Cogni.Q vegicaps, subject S8 (160 lb), read-out: Terminal t1/2, h (converted)",5.5 h
same,Tmax,"human, plasma, oral, 4 Cogni.Q vegicaps, subject S8 (160 lb), read-out: Tmax",3 h
same,AUC(0-t),"human, plasma, oral, 4 Cogni.Q vegicaps, subject S9 (158 lb), read-out: AUC0-48h",17700 nmol·h/L
same,Cmax,"human, plasma, oral, 4 Cogni.Q vegicaps, subject S9 (158 lb), read-out: Cmax",2110 nM
